Laboratory results published in ChEMBL document CHEMBL5465560, “Selectivity Literature for EUbOPEN Chemogenomic Library” (2024).

Tests used:
[1] = molecular target: T1, Tyrosine-protein kinase ITK/TSK (Homo sapiens) (UniProt Q08881); conditions: at 10 µM
T1 sequence (whole entry): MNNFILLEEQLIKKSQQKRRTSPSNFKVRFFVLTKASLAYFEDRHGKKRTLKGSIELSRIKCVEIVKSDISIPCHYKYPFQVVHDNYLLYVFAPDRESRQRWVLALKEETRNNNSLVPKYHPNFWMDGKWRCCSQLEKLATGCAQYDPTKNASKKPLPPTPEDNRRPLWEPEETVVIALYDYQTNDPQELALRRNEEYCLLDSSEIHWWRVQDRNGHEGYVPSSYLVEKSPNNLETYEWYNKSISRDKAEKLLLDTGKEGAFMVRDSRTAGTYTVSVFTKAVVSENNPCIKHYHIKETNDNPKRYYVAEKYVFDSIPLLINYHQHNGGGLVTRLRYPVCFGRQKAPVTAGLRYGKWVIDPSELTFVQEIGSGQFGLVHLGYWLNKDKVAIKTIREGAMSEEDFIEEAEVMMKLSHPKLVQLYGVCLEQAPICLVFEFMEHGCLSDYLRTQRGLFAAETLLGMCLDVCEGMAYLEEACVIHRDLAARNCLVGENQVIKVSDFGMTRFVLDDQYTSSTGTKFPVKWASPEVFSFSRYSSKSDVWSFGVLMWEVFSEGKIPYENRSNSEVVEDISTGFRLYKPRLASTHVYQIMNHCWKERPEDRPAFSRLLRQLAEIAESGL

[2] = molecular target: T2, Cyclin-G-associated kinase (Homo sapiens) (UniProt O14976); experiment: Selectivity interaction (KinomeScan (DiscoverX)) EUB0001079a GAK; conditions: at 1 µM
T2 sequence (whole entry): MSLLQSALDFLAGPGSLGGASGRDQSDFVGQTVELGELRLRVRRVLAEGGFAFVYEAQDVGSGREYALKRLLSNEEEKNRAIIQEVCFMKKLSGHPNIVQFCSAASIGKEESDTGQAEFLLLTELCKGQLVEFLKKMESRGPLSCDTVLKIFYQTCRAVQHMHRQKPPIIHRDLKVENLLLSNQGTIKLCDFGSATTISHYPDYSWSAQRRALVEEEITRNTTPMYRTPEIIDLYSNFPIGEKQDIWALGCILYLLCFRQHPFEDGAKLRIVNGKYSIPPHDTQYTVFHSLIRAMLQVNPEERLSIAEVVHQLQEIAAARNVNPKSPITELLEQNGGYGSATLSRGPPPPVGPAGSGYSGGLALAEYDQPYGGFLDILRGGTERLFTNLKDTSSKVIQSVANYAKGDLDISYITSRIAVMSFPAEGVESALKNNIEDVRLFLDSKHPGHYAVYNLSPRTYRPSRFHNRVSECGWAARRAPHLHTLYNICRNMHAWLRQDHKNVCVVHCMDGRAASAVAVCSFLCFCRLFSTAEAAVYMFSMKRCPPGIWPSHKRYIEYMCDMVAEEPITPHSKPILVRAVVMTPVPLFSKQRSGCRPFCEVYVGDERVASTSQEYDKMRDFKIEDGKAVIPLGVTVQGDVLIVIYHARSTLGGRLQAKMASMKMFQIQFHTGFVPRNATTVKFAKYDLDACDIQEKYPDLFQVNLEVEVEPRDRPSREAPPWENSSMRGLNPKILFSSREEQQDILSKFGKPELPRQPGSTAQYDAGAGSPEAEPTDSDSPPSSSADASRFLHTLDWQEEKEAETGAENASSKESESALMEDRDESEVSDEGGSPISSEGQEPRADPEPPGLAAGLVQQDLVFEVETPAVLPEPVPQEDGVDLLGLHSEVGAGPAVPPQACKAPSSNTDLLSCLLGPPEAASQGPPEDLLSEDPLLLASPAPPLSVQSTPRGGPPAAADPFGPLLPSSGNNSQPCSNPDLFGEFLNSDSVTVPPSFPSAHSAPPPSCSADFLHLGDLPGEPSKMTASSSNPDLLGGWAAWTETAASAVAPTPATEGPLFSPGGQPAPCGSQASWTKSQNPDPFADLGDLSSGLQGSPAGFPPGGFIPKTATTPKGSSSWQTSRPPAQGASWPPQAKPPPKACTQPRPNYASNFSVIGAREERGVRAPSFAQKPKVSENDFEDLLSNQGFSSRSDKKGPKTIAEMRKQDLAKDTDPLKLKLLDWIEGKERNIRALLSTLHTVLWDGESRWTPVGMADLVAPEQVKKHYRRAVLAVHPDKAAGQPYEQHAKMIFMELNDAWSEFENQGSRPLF

[3] = molecular target: Serine/threonine-protein kinase PAK 3 (Homo sapiens) (UniProt O75914); experiment: Selectivity interaction (Kinase panel (Z-LYTE Assay)) EUB0001632a PAK3; conditions: at 10 µM
Sequence of Serine/threonine-protein kinase PAK 3 (Homo sapiens) (O75914 whole entry, looked up): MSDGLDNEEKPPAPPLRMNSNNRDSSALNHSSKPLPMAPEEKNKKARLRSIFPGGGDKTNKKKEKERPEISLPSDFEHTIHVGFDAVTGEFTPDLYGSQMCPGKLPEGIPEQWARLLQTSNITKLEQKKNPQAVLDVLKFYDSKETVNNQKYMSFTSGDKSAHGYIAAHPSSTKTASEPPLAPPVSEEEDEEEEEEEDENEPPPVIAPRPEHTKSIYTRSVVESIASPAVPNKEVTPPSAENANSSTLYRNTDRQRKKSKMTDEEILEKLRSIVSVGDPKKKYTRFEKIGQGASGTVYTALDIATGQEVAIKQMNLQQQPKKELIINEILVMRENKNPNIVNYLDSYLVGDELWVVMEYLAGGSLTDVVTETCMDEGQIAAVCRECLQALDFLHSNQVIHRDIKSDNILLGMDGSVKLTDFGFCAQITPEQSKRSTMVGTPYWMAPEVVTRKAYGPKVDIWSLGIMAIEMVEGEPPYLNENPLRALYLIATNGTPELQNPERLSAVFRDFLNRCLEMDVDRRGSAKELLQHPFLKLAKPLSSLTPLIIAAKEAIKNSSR

[4] = molecular target: Protein kinase C beta type (Homo sapiens, UniProt P05771)
Sequence of Protein kinase C beta type (P05771 whole entry): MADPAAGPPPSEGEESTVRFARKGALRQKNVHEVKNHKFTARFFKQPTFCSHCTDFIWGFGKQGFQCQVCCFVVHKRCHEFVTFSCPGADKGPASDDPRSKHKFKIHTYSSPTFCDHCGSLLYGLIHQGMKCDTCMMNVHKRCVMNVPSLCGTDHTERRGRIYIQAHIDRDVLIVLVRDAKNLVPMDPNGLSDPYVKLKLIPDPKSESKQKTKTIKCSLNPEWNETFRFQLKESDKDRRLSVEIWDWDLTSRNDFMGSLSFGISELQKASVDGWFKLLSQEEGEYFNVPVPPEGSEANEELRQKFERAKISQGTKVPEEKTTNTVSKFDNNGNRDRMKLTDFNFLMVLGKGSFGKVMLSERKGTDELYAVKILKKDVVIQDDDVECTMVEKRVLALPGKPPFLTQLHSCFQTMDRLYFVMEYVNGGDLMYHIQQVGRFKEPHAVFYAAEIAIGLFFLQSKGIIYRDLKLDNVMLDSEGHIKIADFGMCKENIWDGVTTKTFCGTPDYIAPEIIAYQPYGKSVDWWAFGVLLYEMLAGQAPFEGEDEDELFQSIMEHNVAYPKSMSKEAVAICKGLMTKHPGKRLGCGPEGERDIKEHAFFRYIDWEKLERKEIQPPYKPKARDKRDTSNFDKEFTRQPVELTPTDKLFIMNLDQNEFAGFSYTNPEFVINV

[5] = molecular target: Death-associated protein kinase 3 (Homo sapiens) (UniProt O43293); experiment: Selectivity interaction (KinomeScan (DiscoverX)) EUB0000607a DAPK3; conditions: at 10 µM
Sequence of Death-associated protein kinase 3 (Homo sapiens) (O43293 whole entry, looked up): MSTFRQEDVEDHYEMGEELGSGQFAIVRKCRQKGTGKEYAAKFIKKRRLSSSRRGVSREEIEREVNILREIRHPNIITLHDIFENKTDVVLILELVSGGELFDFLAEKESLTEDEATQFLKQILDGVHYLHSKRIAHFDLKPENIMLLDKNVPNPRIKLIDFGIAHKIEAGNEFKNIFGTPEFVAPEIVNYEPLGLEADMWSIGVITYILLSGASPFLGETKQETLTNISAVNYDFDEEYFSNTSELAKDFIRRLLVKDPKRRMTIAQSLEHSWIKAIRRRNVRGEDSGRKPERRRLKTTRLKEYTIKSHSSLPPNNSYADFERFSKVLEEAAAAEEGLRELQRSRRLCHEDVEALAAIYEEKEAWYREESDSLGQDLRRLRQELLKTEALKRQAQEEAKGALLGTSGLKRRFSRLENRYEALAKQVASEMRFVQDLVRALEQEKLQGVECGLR

[6] = molecular target: Transient receptor potential cation channel subfamily M member 6 (Homo sapiens) (UniProt Q9BX84); experiment: Selectivity interaction (KinomeScan (DiscoverX)) EUB0000618a TRPM6; conditions: at 10 µM
Sequence of Transient receptor potential cation channel subfamily M member 6 (Homo sapiens) (Q9BX84 whole entry): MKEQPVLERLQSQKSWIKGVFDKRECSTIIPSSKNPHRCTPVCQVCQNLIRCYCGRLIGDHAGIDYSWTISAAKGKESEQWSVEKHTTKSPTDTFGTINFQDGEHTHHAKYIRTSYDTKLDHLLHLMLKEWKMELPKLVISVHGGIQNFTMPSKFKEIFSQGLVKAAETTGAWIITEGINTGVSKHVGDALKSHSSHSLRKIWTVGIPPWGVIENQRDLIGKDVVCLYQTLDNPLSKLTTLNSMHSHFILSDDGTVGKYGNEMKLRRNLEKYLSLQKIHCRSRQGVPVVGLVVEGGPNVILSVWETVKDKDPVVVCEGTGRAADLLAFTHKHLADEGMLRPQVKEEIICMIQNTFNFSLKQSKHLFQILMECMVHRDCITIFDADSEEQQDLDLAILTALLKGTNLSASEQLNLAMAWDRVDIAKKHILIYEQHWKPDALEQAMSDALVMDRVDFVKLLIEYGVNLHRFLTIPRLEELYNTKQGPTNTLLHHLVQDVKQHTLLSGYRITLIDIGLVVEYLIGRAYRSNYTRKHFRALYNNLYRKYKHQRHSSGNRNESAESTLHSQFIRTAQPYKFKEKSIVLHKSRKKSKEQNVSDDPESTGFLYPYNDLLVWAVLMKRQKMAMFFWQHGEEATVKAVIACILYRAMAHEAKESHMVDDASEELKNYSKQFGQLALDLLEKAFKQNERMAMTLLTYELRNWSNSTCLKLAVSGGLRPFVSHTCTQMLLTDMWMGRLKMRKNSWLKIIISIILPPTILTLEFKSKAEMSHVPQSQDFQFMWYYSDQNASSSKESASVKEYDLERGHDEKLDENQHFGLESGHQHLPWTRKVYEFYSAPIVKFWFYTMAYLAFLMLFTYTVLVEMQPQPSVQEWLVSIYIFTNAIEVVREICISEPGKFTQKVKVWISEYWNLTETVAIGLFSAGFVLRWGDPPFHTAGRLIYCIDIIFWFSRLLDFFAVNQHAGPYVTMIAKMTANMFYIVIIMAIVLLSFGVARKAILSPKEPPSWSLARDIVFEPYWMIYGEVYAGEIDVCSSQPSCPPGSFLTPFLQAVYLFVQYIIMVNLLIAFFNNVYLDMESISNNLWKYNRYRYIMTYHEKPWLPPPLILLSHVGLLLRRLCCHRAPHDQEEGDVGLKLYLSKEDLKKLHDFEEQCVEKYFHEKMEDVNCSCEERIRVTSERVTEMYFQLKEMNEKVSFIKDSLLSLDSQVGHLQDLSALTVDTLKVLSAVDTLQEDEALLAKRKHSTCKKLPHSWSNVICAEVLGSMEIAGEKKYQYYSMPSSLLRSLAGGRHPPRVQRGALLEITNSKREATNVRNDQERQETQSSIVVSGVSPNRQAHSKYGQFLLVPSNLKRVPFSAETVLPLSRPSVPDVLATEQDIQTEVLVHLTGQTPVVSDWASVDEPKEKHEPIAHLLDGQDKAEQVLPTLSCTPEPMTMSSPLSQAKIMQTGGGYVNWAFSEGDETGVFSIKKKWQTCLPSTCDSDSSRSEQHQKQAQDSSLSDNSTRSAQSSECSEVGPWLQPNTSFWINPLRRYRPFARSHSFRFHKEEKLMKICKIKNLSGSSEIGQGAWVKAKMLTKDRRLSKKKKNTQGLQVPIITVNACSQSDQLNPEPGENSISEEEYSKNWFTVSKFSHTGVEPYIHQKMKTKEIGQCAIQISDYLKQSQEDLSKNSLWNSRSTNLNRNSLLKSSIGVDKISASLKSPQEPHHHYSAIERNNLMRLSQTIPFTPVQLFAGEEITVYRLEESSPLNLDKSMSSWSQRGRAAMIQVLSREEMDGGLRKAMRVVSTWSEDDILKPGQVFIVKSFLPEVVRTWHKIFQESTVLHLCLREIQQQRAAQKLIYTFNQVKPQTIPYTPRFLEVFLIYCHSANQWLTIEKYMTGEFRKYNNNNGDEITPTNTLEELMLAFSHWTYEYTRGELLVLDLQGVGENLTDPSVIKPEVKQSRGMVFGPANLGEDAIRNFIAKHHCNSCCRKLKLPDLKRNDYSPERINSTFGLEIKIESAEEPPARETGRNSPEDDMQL

[7] = molecular target: Serine/threonine-protein kinase 10 (Homo sapiens) (UniProt O94804); experiment: Selectivity interaction (KinomeScan (DiscoverX)) EUB0000618a STK10; conditions: at 10 µM
Sequence of Serine/threonine-protein kinase 10 (Homo sapiens) (O94804 whole entry, looked up): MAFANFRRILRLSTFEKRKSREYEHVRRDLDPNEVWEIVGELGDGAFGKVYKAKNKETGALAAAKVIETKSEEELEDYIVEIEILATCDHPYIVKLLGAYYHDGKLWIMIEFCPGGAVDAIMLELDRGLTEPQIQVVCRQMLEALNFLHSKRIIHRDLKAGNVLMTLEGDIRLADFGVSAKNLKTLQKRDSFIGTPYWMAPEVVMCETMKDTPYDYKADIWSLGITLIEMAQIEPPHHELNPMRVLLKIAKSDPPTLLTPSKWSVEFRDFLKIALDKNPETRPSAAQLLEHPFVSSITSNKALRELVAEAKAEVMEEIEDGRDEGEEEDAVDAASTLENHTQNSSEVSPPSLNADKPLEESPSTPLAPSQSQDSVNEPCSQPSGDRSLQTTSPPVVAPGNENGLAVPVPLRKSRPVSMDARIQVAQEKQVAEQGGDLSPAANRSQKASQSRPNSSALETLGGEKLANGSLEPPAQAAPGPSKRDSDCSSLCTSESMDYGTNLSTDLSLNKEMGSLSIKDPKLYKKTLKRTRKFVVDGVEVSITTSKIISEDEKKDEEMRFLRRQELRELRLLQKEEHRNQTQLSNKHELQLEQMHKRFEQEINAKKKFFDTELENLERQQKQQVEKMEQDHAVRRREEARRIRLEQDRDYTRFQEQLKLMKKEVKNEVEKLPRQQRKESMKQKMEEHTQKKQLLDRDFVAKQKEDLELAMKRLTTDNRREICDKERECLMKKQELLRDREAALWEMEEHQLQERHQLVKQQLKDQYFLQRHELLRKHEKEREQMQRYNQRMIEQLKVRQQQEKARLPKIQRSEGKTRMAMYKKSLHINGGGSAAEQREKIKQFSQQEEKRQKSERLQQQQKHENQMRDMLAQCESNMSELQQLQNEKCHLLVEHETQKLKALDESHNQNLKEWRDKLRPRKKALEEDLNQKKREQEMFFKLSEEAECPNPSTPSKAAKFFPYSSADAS

COCC(=O)NC/C=C/c1ccc2ncnc(Nc3ccc(Oc4ccc(C)nc4)c(C)c3)c2c1 [CP-724714]
% of control [1]: 92%

Nc1cnc(N2CCc3cc(S(=O)(=O)Nc4c(F)cc(Cl)cc4F)cc(N4CCCC4=O)c32)nc1 [TP-020n]
% of control [2]: 100%

Cn1cc(-n2cnc3c(NCc4nc5cc(Cl)c(Cl)cc5[nH]4)nc(N4CCOCC4)nc32)cn1
% of control [3]: -20.7%

CCc1cccc(CC)c1NC(=O)c1nn(C)c2c1CCc1cnc(Nc3ccc(C(=O)NC4CCN(C)CC4)cc3OC(F)(F)F)nc1-2
IC50 [4]: > 10 µM

CNC(=O)Nc1ccc(-c2nc(N3CC4CCC(C3)O4)c3cnn(C4CCC5(CC4)OCCO5)c3n2)cc1
% of control [5]: 100%

O[C@H]1CC[C@H](Nc2ncc3nc(Nc4c(F)cc(F)cc4F)n([C@H]4CCOC4)c3n2)CC1
% of control [6]: 100% | % of control [7]: 97%
